Like-named read-outs stand apart in the source and are kept apart here.
Experiments:
Type in all cases: cell-based
[1] = biological target: GLP-1 receptor (GPA1/Gαs chimera) (Homo sapiens, UniProt P43220); assay: Yeast growth assay, GPA1/Gαs chimera strain expressing the GLP-1 receptor
[2] = biological target: GLP-1 receptor (GPA1/Gαi chimera) (Homo sapiens, UniProt P43220); assay: Yeast growth assay, GPA1/Gαi chimera strain expressing the GLP-1 receptor
GLP-1 receptor = GLP-1 receptor (Homo sapiens, UniProt P43220); assay: G protein signalling bias, GPA1/Gαs versus GPA1/Gαi, yeast assays; conditions: normalized responses at equivalent ligand concentrations
[3] = yeast, 20 h, percentage of the maximum response achieved through activation of GPA1/Gαs, mean ± SEM, n = 5, SEM
[4] = yeast, 20 h, three-parameter logistic fit, mean ± SEM, n = 5, SEM

Sequence of GLP-1 receptor (GPA1/Gαs chimera) (P43220 24-463, change not shown): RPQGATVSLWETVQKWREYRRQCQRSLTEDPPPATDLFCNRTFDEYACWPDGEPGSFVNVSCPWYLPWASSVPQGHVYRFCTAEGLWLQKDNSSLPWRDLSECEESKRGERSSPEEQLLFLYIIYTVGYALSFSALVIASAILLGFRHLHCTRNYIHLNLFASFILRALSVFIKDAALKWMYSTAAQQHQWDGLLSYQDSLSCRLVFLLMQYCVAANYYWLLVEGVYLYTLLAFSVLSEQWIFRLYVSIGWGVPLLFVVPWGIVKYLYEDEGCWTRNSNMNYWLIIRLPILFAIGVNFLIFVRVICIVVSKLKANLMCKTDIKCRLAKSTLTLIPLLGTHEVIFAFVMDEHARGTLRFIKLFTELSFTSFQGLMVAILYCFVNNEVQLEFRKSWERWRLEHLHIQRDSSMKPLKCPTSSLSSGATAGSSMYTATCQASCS
Sequence of GLP-1 receptor (GPA1/Gαi chimera) (P43220 24-463, change not shown): as above
Sequence of GLP-1 receptor (P43220 24-463): as the sequence (P43220 24-463, change not shown) above

| EC50 ([1]; pEC50 (GLP-1 receptor, GPA1/Gαs), non-peptide agonists, yeast, 20 h, three-parameter logistic fit, mean ± SEM, n = 5, SEM) [µM] | Emax ([1]; read-out: Emax (GLP-1 receptor, non-peptide agonists), yeast, 20 h, percentage of the maximum response achieved through activation of GPA1/Gαs, mean ± SEM, n = 5, SEM) [%] | EC50 ([1]; value quoted in running text, read-out: EC50 (yeast, GPA1/Gαs)) [µM] | EC50 ([2]; pEC50 (GLP-1 receptor, GPA1/Gαi), non-peptide agonists, yeast, 20 h, three-parameter logistic fit, mean ± SEM, n = 5, SEM) [µM] | Emax ([2]; read-out: Emax (GLP-1 receptor, GPA1/Gαi), non-peptide agonists, yeast, 20 h, percentage of the maximum response achieved through activation of GPA1/Gαs, mean ± SEM, n = 5, SEM) [%] | EC50 ([2]; value quoted in running text, read-out: EC50 (yeast, GPA1/Gαi)) [µM] | Emax (GLP-1 receptor, GPA1/Gαs), non-peptide agonists [1, 3] [%] | pEC50 (GLP-1 receptor, GPA1/Gαs), non-peptide agonists [1, 4] | Emax (GLP-1 receptor, GPA1/Gαi), non-peptide agonists [2, 3] [%] | pEC50 (GLP-1 receptor, GPA1/Gαi), non-peptide agonists [2, 4] | Compound | Equimolar bias plot, GPA1/Gαs versus GPA1/Gαi (GLP-1 receptor) |
| --- | --- | --- | --- | --- | --- | --- | --- | --- | --- | --- | --- |
| 0.00794 | 100 ± 5.1 | 0.01 | 0.0158 | 96.5 ± 4.3 | 0.015 |  |  |  |  | CC[S+]([O-])c1nc(-c2cccc(OCc3ccccc3)c2)cc(C(F)(F)F)n1 (centres unmarked) [BETP, 4-(3-benzyloxyphenyl)-2-ethylsulfinyl-6-(trifluoromethyl) pyrimidine] | did not deviate from the no-bias line of unity |
|  |  |  |  |  |  | 100 ± 7.3 | 8.6 ± 0.2 | 67.5 ± 7.3 | 8.5 ± 0.3 | CC(C)(C)Nc1nc2cc(Cl)c(Cl)cc2nc1S(C)(=O)=O [Compound 2, 6,7-dichloro-2-methylsulfonyl-3-N-tert-butylaminoquinoxaline] |  |
